This note sets out measurements from patent publication US8318769B2, “Substituted sulfonamide compounds” (Gruenethal GmbH, priority 2008, dated 2012).

SMILES strings stand for the structures.

The target of assay [1] is T1, human bradykinin 1 receptor (B1R) (Homo sapiens, UniProt P46663).
T1 construct: expressed in transfected cells
T1 sequence (P46663 1-353): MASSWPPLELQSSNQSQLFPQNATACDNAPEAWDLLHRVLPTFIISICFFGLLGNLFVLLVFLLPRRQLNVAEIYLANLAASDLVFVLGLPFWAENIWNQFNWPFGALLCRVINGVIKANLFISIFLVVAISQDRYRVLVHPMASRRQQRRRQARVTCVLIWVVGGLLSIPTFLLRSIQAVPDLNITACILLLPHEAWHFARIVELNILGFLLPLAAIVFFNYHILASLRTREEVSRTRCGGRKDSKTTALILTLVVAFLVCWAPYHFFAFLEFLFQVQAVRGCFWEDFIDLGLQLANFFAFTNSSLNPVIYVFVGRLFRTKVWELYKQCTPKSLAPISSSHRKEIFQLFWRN
In words: FLIPR Ca2+ assay, B1R antagonism, human. The following applies: 10 μM test substance, CHO K1 cells with human B1R gene (hB1R cells), Lys-Des-Arg9-bradykinin at EC80, % inhibition compared with the maximum achievable inhibition; for inhibition at 10 µM: read-out: B1R antagonism, human [10 μM] % inhibition. Type of assay: cell-based. The method in brief: (§1)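 CHO K1 cells stably expressing human or rat B1R, loaded with Fluo-4 and read in FLIPR (ex 488, em 540 nm, peak fluorescence). Test compound 10 μM preincubated 10-20 min, then EC80 agonist added (Lys-Des-Arg9-bradykinin for human, Des-Arg9-bradykinin for rat); % inhibition relative to maximum achievable inhibition.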

Assay [2] has as its target T2, bradykinin 1 receptor (B1R) of the rat (Rattus norvegicus, UniProt P97583).
T2 construct: expressed in transfected cells
T2 sequence (P97583 1-337): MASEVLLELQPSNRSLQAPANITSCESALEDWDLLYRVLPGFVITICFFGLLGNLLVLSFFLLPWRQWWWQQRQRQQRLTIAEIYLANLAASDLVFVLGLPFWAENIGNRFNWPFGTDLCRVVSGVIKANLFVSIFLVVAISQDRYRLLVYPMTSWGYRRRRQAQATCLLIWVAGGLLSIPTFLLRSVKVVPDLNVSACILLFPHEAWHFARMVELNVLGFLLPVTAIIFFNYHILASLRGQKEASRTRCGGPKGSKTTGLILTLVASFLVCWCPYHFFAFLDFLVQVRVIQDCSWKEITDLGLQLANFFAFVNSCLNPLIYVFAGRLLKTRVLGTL
The assay is described as follows: FLIPR Ca2+ assay, B1R antagonism, rat. Type of assay: cell-based. Conditions: CHO K1 cells with rat B1R gene (rB1R cells), Des-Arg9-bradykinin at EC80, % inhibition compared with the maximum achievable inhibition; for inhibition at 10 µM: CHO-K1, 10 μM test substance, read-out: B1R antagonism, rat [10 μM] % inhibition; for B1R antagonism, rat [10 μM] % inhibition: 10 μM test substance. The method in brief:
as §1

In the case of `COc1cc(C)c(S(=O)(=O)N2c3ccccc3CC[C@H]2COCC(=O)N2CCC(OCCN3CCCC3)(c3cccnc3)CC2)c(C)c1` [Example 1, (S)-2-((1-(4-methoxy-2,6-dimethylphenylsulfonyl)-1,2,3,4-tetrahydroquinolin-2-yl)methoxy)-1-(4-(pyridin-3-yl)-4-(2-(pyrrolidin-1-yl)ethoxy)piperidin-1-yl)ethanone], the inhibition (in general, the change of the read-out against control, counted positive when it falls) at 10 µM in assay [1] is 99%; in assay [2] it was 100%.

Take `COc1cc(C)c(S(=O)(=O)N2CCCCC2CCCC(=O)N2CCC(OCCN3CCCC3)(c3ccncc3)CC2)c(C)c1` (stereo not drawn) [Example 91, 4-[1-[(4-methoxy-2,6-dimethyl-phenyl)sulfonyl]-piperidin-2-yl]-1-[4-pyridin-4-yl-4-(2-pyrrolidin-1-yl-ethoxy)-piperidin-1-yl]-butan-1-one]: the “B1R antagonism, human [10 μM] % inhibition” value in assay [1] is reported as 100%. Further, the “B1R antagonism, rat [10 μM] % inhibition” value in assay [2] is 103%.

On to `COc1cc(C)c(S(=O)(=O)N(C)CCOCC(=O)N2CCC(OCCN3CCCC3)(c3cccnc3)CC2)c(C)c1` [Example 80, 4-methoxy-N,2,6-trimethyl-N-[2-[2-oxo-2-[4-pyridin-3-yl-4-(2-pyrrolidin-1-yl-ethoxy)-piperidin-1-yl]-ethoxy]-ethyl]-benzenesulfonic acid amide], for which the “B1R antagonism, human [10 μM] % inhibition” value in assay [1] (10 µM) amounted to 100%. Besides, in assay [2], the “B1R antagonism, rat [10 μM] % inhibition” value came out at 102%.

For the compound `CN1CCN(CCOC2(c3cccnc3)CCN(C(=O)CC3CCCCN3S(=O)(=O)c3cccc(C(F)(F)F)c3)CC2)CC1` (stereo not drawn) [Example 30, 1-(4-(2-(4-methylpiperazin-1-yl)ethoxy)-4-(pyridin-3-yl)piperidin-1-yl)-2-(1-(3-(trifluoromethyl)phenylsulfonyl)piperidin-2-yl)ethanone], the inhibition at 10 µM in assay [1] turned out to be 31%; in assay [2], 18%.

On to `COc1cc(C)c(S(=O)(=O)N2CCCCC2COCC(=O)N2CCC(OCCN3CCCCC3)(c3cccnc3)CC2)c(C)c1` (stereo not drawn) [Example 14, 2-((1-(4-methoxy-2,6-dimethylphenylsulfonyl)piperidin-2-yl)methoxy)-1-(4-(2-(piperidin-1-yl)ethoxy)-4-(pyridin-3-yl)piperidin-1-yl)ethanone], for which the results for the inhibition at 10 µM in assay [1] and in assay [2] were 103% and 102%, respectively.

`COc1cc(C)c(S(=O)(=O)N(C)CCOCC(=O)N2CCC(OCCN3CCCCC3)(c3cccnc3)CC2)c(C)c1` [Example 15, 4-methoxy-N,2,6-trimethyl-N-(2-(2-oxo-2-(4-(2-(piperidin-1-yl)ethoxy)-4-(pyridin-3-yl)piperidin-1-yl)ethoxy)ethyl)-benzenesulfonamide]: the inhibition at 10 µM is 104% in assay [1] and 102% in assay [2].

With `COc1cc(C)c(S(=O)(=O)N(C)CCOCC(=O)N2CCC(OCCN3CCCC3)(c3cccc(F)c3)CC2)c(C)c1` [Example 81, N-[2-[2-[4-(3-fluorophenyl)-4-(2-pyrrolidin-1-yl-ethoxy)-piperidin-1-yl]-2-oxo-ethoxy]-ethyl]-4-methoxy-N,2,6-trimethyl-benzenesulfonic acid amide], the inhibition at 10 µM is 100% in assay [1] and 97% in assay [2].

For the compound `COc1cc(C)c(S(=O)(=O)N(CCOCC(=O)N2CCC(OCCN3CCCC3)(c3cccnc3)CC2)C(c2ccccc2)c2ccccc2)c(C)c1` [Example 6, N-benzhydryl-4-methoxy-2,6-dimethyl-N-(2-(2-oxo-2-(4-(pyridin-3-yl)-4-(2-(pyrrolidin-1-yl)ethoxy)piperidin-1-yl)ethoxy)ethyl)benzenesulfonamide], the values for the inhibition at 10 µM in assay [1] and in assay [2] were 98% and 100%, respectively.

As to `CN1CCN(CCCOC2(c3cccnc3)CCN(C(=O)CC3CCCCN3S(=O)(=O)c3cccc(C(F)(F)F)c3)CC2)CC1` (stereo not drawn) [Example 35, 1-(4-(3-(4-methylpiperazin-1-yl)propoxy)-4-(pyridin-3-yl)piperidin-1-yl)-2-(1-(3-(trifluoromethyl)phenylsulfonyl)piperidin-2-yl)ethanone], the values for the inhibition at 10 µM in assay [1] and in assay [2] were 21% and 97%, respectively.

For `O=C(COCC1CCCCN1S(=O)(=O)c1ccccc1C(F)(F)F)N1CCC(OCCN2CCCC2)(c2cccnc2)CC1` (stereo not drawn) [Example 117, 1-[4-pyridin-3-yl-4-(2-pyrrolidin-1-yl-ethoxy)-piperidin-1-yl]-2-[[1-[[2-(trifluoromethyl)-phenyl]sulfonyl]-piperidin-2-yl]-methoxy]-ethanone], the “B1R antagonism, human [10 μM] % inhibition” value in assay [1] is reported as 100%. Further, the “B1R antagonism, rat [10 μM] % inhibition” value in assay [2] was found to be 103%.

As to `O=C(CCCC1CCCCN1S(=O)(=O)c1ccccc1C(F)(F)F)N1CCC(OCCN2CCCC2)(c2cccnc2)CC1` (stereo not drawn) [Example 8, 1-(4-(pyridin-3-yl)-4-(2-(pyrrolidin-1-yl)ethoxy)piperidin-1-yl)-4-(1-(2-(trifluoromethyl)phenylsulfonyl)piperidin-2-yl)butan-1-one], the inhibition at 10 µM in assay [1] turned out to be 70%; in assay [2], 60%.

On to `O=C(CC1CCCCN1S(=O)(=O)c1cccc(C(F)(F)F)c1)N1CCC(OCCCN2CCCCC2)(c2cccnc2)CC1` (stereo not drawn) [Example 23, 1-(4-(3-(piperidin-1-yl)propoxy)-4-(pyridin-3-yl)piperidin-1-yl)-2-(1-(3-(trifluoromethyl)phenylsulfonyl)piperidin-2-yl)ethanone], for which the inhibition at 10 µM in assay [1] was 57%; in assay [2], 46%.

`Cc1cc(S(=O)(=O)N2CCCCC2CCC(=O)N2CCC(OCCN3CCCC3)(c3cccnc3)CC2)c(C)cc1Cl` (stereo not drawn) [Example 25, 3-(1-(4-chloro-2,5-dimethylphenylsulfonyl)piperidin-2-yl)-1-(4-(pyridin-3-yl)-4-(2-(pyrrolidin-1-yl)ethoxy)piperidin-1-yl)propan-1-one]: the inhibition at 10 µM in assay [1] came to 86%; in assay [2], 72%.

With `Cc1cc(S(=O)(=O)N2CCCCC2CCC(=O)N2CCC(OCCCN3CCCCC3)(c3cccnc3)CC2)c(C)cc1Cl` (stereo not drawn) [Example 12, 3-(1-(4-chloro-2,5-dimethylphenylsulfonyl)piperidin-2-yl)-1-(4-(3-(piperidin-1-yl)propoxy)-4-(pyridin-3-yl)piperidin-1-yl)propan-1-one], the results for the inhibition at 10 µM in assay [1] and in assay [2] were 103% and 46%, respectively.

On to `O=C(COCC1CCCCN1S(=O)(=O)c1ccccc1C(F)(F)F)N1CCC(OCCN2CCCC2)(c2cccc(F)c2)CC1` (stereo not drawn) [Example 118, 1-[4-(3-fluorophenyl)-4-(2-pyrrolidin-1-yl-ethoxy)-piperidin-1-yl]-2-[[1-[[2-(trifluoromethyl)-phenyl]sulfonyl]-piperidin-2-yl]-methoxy]-ethanone], for which the inhibition at 10 µM in assay [1] came out at 100%; in assay [2], 97%.

On to `O=C(COCC1CCc2ccccc2N1S(=O)(=O)c1ccc(Cl)c(Cl)c1)N1CCC(OCCCN2CCCCC2)(c2cccnc2)CC1` (stereo not drawn) [Example 19, 2-((1-(3,4-dichlorophenylsulfonyl)-1,2,3,4-tetrahydroquinolin-2-yl)methoxy)-1-(4-(3-(piperidin-1-yl)propoxy)-4-(pyridin-3-yl)piperidin-1-yl)ethanone], for which the values for the inhibition at 10 µM in assay [1] and in assay [2] were 103% and 94%, respectively.

On to `O=C(COC[C@@H]1CCCCN1S(=O)(=O)c1ccccc1C(F)(F)F)N1CCC(OCCN2CCCC2)(c2cccnc2)CC1` [Example 47, (S)-1-(4-(pyridin-3-yl)-4-(2-(pyrrolidin-1-yl)ethoxy)piperidin-1-yl)-2-((1-(2-(trifluoromethyl)phenylsulfonyl)piperidin-2-yl)methoxy)ethanone], for which the inhibition at 10 µM worked out at 100% in assay [1] and 101% in assay [2].

For the compound `COc1cc(C)c(S(=O)(=O)N(C)CCOCC(=O)N2CCC(OCCN3CCCC3)(c3cccc(F)c3)CC2)c(C)c1C` [Example 114, N-[2-[2-[4-(3-fluorophenyl)-4-(2-pyrrolidin-1-yl-ethoxy)-piperidin-1-yl]-2-oxo-ethoxy]-ethyl]-4-methoxy-N,2,3,6-tetramethyl-benzenesulfonic acid amide], the inhibition at 10 µM turned out to be 100% in assay [1] and 99% in assay [2].
